These results are taken from paper PMC9982066, “Inhibition of Ehrlichia chaffeensis infection by cell-permeable macrocyclic peptides that bind type IV secretion effector Etf-1” (PNAS Nexus, 2023).

The target of experiment [1] is Etf-1 (Ehrlichia chaffeensis, UniProt Q2GG12). The experiment is described as follows: FP assay of Etf-1 binding with FAM-labeled peptides. As for the experimental part:
The peptides were labeled at their C-terminus with carboxyfluorescein (FAM) through a β-Ala-β-Ala-Lys linker and evaluated for binding to Etf-1 by using a fluorescence polarization (FP) assay. […] This outcome is not unexpected, as screening OBOC libraries is often complicated by false positives, due to the presence of high ligand densities on library beads ([28]).
Fig. 2. Determination of binding affinity of Etf-1-binding peptides by FP assay. […] FAM-labeled peptide (50 nM) was incubated with serially diluted Etf-1 (starting from 25–30 μM in PBS, pH 7.4, supplemented with 5 mM DTT and 0.01% Triton X-100) for 1 h at RT. FP values were measured on a Tecan Infinite M1000 Pro plate reader. Titration curves (n ≥ 3) were fitted using GraphPad Prism and analyzed with TraceDrawer to calculate dissociation constants (KD). […] Data were analyzed using GraphPad Prism and fitted to a four-parameter variable slope equation to determine IC50 values.
Etf-1 and macrocyclic peptides were serially diluted in PBS supplemented with 5 mM DTT and 0.01% Triton X-100 (v/v). FAM-labeled peptides (50 nM) were prepared from a 10-μM DMSO stock and incubated with serially diluted Etf-1 for 1 h at room temperature (RT). Twenty microliters of the solutions were transferred to a black 384-well plate (Greiner Bio-One) and FP values were measured on a Tecan Infinite M1000 Pro plate reader with excitation and emission wavelengths at 470 and 535 nm, respectively. Titration curves (n ≥ 3) were fitted using GraphPad Prism v8.0 (GraphPad, La Jolla, CA, USA), and analyzed with TraceDrawer software v1.8 (Ridgeview Instruments AB, Uppsala, Sweden) to calculate the dissociation constant (KD, in nM).

Experiment [2] concerns E. chaffeensis. In words: E. chaffeensis infection of THP-1 cells, qPCR of 16S rRNA gene normalized to human actin. In kind it is cell-based, Ehrlichia chaffeensis. The method, then:
Therefore, we investigated whether these Etf-1-binding peptides can prevent the proliferation of E. chaffeensis inside host cells. THP-1 cells were infected with E. chaffeensis, then treated with the peptides at 30 min post infection (pi) for 2 days. Intracellular infection and proliferation of E. chaffeensis inside host THP-1 cells were assessed using quantitative PCR (qPCR) analysis based on E. chaffeensis 16S rRNA gene normalized by human actin (ACT) gene.
Fig. 5. Effects of Etf-1-binding peptides on E. chaffeensis infection of THP-1 cells. Ehrlichia chaffeensis-infected THP-1 cells at […] were incubated with 10 μM of Etf-1-binding macrocyclic peptide or DMSO control for 2 days.
No antibiotic was used throughout the study.
DNA was extracted from each sample using Qiagen blood mini kit according to the manufacturer's instructions (Qiagen, Valencia, CA, USA), and qPCR analysis was performed in an MX3000P qPCR instrument (Stratagene, San Diego, CA, USA) using SYBR Green Real-Time PCR Master Mix (Thermo Fisher Scientific) according to the manufacturer's instructions. Five-fold serial dilutions of the control group were used to generate a standard curve to calculate the relative copy numbers of E. chaffeensis 16S rRNA normalized against human actin genes using the MX3000P software from Stratagene as described previously ([18], [44]).

Experiment [3] relates to E. chaffeensis. The experiment is described as follows: morphological examination of E. chaffeensis infection of THP-1 cells by Diff-Quik staining. The conditions noted are these: THP-1 cells, Fig. S4 (with Figs. 5, S3). As for the experimental part: Ehrlichia chaffeensis Arkansas strain ([43]) was cultured in THP-1 cells (ATCC, Manassas, VA, USA) in RPMI 1640 medium (Corning, Manassas, VA, USA) supplemented with 8% FBS (Atlanta Biologicals, Flowery Branch, GA, USA) and 4 mM L-glutamine (at 37°C under 5% CO2 in a humidified atmosphere. THP-1 cells were seeded at 1 × 10^5 cells/well (in 1.5-mL RPMI 1640 culture medium with 8% FBS, 4 mM L-Gln) in a 12-well plate, then infected with host cell-free E. chaffeensis at an MOI (multiplicity of infection, or numbers of bacteria per cell) of ∼30. Cells were cultured in a humidified incubator with 5% CO2 and 95% air. No antibiotic was used throughout the study. At 0.5 h post infection (pi), cells were incubated with 1–10 μM of peptides or with an equal volume of DMSO (solvent control, 2 μL per mL medium). At 2 days pi, cells were washed with 1 mL of PBS, and two drops of cells were cytospun onto glass slides by a Shandon Cytospin 4 cytocentrifuge (Thermo Fisher Scientific), then fixed and stained with HEMA 3 staining solutions (Thermo Fisher Scientific). Ehrlichia infection was observed and images were captured by a SPOT RT digital camera (Diagnostic Instruments, Sterling Heights, MI, USA) coupled to a Nikon Eclipse E400 microscope (Nikon, Melville, NY, USA).

Starred links: 1 amine or outer side, 2 acyl side, 3 side chain; linkers in the order of their positions; H or OH if unused. Positions of bridges follow the written chain, without caps; N, C: chain ends. Non-standard residues stand in square brackets, D forms with d. Residues, ends and D or L forms follow the SMILES beside them. Trimesoyl = O=C(c1cc(C(=O)[*:2])cc(C(=O)[*:3])c1)[*:1]; Phe(3-Cl) = N[C@@H](Cc1cccc(Cl)c1)C(=O)O; Phe(4-Cl) = N[C@@H](Cc1ccc(Cl)cc1)C(=O)O; Phe(4-F) = N[C@@H](Cc1ccc(F)cc1)C(=O)O; d2Nal = N[C@H](Cc1ccc2ccccc2c1)C(=O)O; βAsp = O=C(O)[C@H](CC(=O)[*:2])N[*:1]; Nle = CCCC[C@H](N)C(=O)O; Orn = NCCC[C@H](N)C(=O)O; Dap = NC[C@H](N)C(=O)O

Sequence of Etf-1 (Q2GG12 entry or part of it): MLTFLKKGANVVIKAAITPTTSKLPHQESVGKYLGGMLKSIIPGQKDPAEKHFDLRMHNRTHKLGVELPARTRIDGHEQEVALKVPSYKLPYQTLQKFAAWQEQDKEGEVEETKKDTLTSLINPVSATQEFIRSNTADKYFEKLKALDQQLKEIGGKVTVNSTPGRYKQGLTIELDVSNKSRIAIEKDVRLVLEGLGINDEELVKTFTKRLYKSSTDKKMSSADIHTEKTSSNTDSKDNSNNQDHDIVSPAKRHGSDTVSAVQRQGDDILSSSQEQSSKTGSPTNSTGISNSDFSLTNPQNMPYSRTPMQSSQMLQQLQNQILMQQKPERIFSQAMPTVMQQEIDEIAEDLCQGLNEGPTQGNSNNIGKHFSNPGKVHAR

For `CC(C)C[C@H]1NC(=O)[C@H](CO)NC(=O)[C@H]2CCCN2C(=O)[C@H](CCC(N)=O)NC(=O)[C@H](Cc2c[nH]cn2)NC(=O)[C@H](Cc2ccc(O)cc2)NC(=O)c2cc3cc(c2)C(=O)NC[C@H](NC1=O)C(=O)N[C@@H](Cc1ccccc1)C(=O)N[C@H](Cc1ccc2ccccc2c1)C(=O)N[C@H](CCCNC(=N)N)C(=O)N[C@@H](C)C(=O)N[C@H](CCCNC(=N)N)C(=O)N[C@@H](CCCNC(=N)N)C(=O)N[C@H](C(N)=O)CNC3=O` [Peptide B7-10, TMA-Tyr-His-Gln-pro-Ser-leu-Dap-Phe-nal-arg-Ala-arg-Arg-Dap] (YHQ[dP]S[dL][Dap]F[d2Nal][dR]A[dR]R[Dap]-NH2; linker N-7-14 via Trimesoyl), the Kd in experiment [1] stood at 30 ± 3 µM.

In experiment [1], `CC(C)C[C@H]1NC(=O)[C@H](CO)NC(=O)[C@@H](C)NC(=O)[C@H](CCC(N)=O)NC(=O)[C@H](Cc2c[nH]cn2)NC(=O)[C@H](Cc2ccc(O)cc2)NC(=O)c2cc3cc(c2)C(=O)NC[C@H](NC1=O)C(=O)N[C@@H](Cc1ccccc1)C(=O)N[C@H](Cc1ccc2ccccc2c1)C(=O)N[C@H](CCCNC(=N)N)C(=O)N[C@@H](CCCNC(=N)N)C(=O)N[C@H](CCCNC(=N)N)C(=O)N[C@@H](CCCNC(=N)N)C(=O)N[C@H](C(N)=O)CNC3=O` [Peptide B7-3, TMA-Tyr-His-Gln-ala-Ser-leu-Dap-Phe-nal-arg-Arg-arg-Arg-Dap] (YHQ[dA]S[dL][Dap]F[d2Nal][dR]R[dR]R[Dap]-NH2; linker N-7-14 via Trimesoyl) gave a dissociation constant Kd of 5.8 ± 0.5 µM.

Molecule `CCCC[C@@H]1NC(=O)[C@H](Cc2ccc(O)cc2)NC(=O)c2cc3cc(c2)C(=O)NC[C@H](NC(=O)[C@@H](CC(C)C)NC(=O)CNC(=O)[C@H](CCC(N)=O)NC(=O)[C@@H](CCC(=O)O)NC1=O)C(=O)N[C@@H](Cc1ccc(Cl)cc1)C(=O)N[C@H](Cc1ccc2ccccc2c1)C(=O)N[C@H](CCCNC(=N)N)C(=O)N[C@@H](CCCNC(=N)N)C(=O)N[C@H](CCCNC(=N)N)C(=O)N[C@@H](CCCNC(=N)N)C(=O)N[C@H](C(N)=O)CNC3=O` [Peptide B7-133-4, TMA-Tyr-Nle-glu-Gln-Gly-leu-Dap-4-ClPhe-nal-arg-Arg-arg-Arg-Dap] (Y[Nle][dE]QG[dL][Dap][Phe(4-Cl)][d2Nal][dR]R[dR]R[Dap]-NH2; linker N-7-14 via Trimesoyl) returned a Kd in experiment [1] of 6.5 ± 0.1 µM.

`CC(C)C[C@H]1NC(=O)[C@H](CO)NC(=O)[C@H]2CCCN2C(=O)[C@H](CCC(N)=O)NC(=O)[C@H](Cc2c[nH]cn2)NC(=O)[C@H](Cc2ccc(O)cc2)NC(=O)c2cc3cc(c2)C(=O)NC[C@H](NC1=O)C(=O)N[C@@H](Cc1ccccc1)C(=O)N[C@H](Cc1ccc2ccccc2c1)C(=O)N[C@H](C)C(=O)N[C@@H](CCCNC(=N)N)C(=O)N[C@H](CCCNC(=N)N)C(=O)N[C@@H](CCCNC(=N)N)C(=O)N[C@H](C(N)=O)CNC3=O` [Peptide B7-9, TMA-Tyr-His-Gln-pro-Ser-leu-Dap-Phe-nal-ala-Arg-arg-Arg-Dap] (YHQ[dP]S[dL][Dap]F[d2Nal][dA]R[dR]R[Dap]-NH2; linker N-7-14 via Trimesoyl) returned a Kd in experiment [1] of 30 ± 7 µM.

Take `CC(C)C[C@H]1NC(=O)[C@H](Cc2ccc(F)cc2)NC(=O)[C@@H](CCC(=O)O)NC(=O)C[C@@H](C(=O)O)NC(=O)[C@H](CCCN)NC(=O)[C@H](CC(=O)O)NC(=O)[C@H](Cc2ccc(O)cc2)NC(=O)c2cc3cc(c2)C(=O)NC[C@H](NC1=O)C(=O)N[C@@H](Cc1ccc(Cl)cc1)C(=O)N[C@H](Cc1ccc2ccccc2c1)C(=O)N[C@H](CCCNC(=N)N)C(=O)N[C@@H](CCCNC(=N)N)C(=O)N[C@H](CCCNC(=N)N)C(=O)N[C@@H](CCCNC(=N)N)C(=O)N[C@H](C(N)=O)CNC3=O` [Peptide B7-95-1, TMA-Tyr-Asp-Orn-isoAsp-glu-Fpa-leu-Dap-4-ClPhe-nal-arg-Arg-arg-Arg-Dap] (YD[Orn][βAsp][dE][Phe(4-F)][dL][Dap][Phe(4-Cl)][d2Nal][dR]R[dR]R[Dap]-NH2; linker N-8-15 via Trimesoyl): binding in experiment [1] was put at a Kd of 3.2 µM. Against the preceding molecule, the Kd is about 9.4-fold lower.

For `CC(C)C[C@H]1NC(=O)[C@H](CO)NC(=O)[C@H]2CCCN2C(=O)[C@H](CCC(N)=O)NC(=O)[C@H](Cc2c[nH]cn2)NC(=O)[C@H](Cc2ccc(O)cc2)NC(=O)c2cc3cc(c2)C(=O)NC[C@H](NC1=O)C(=O)N[C@@H](Cc1cccc(Cl)c1)C(=O)N[C@H](Cc1ccc2ccccc2c1)C(=O)N[C@H](CCCNC(=N)N)C(=O)N[C@@H](CCCNC(=N)N)C(=O)N[C@H](CCCNC(=N)N)C(=O)N[C@@H](CCCNC(=N)N)C(=O)N[C@H](C(N)=O)CNC3=O` [Peptide B7-17, TMA-Tyr-His-Gln-pro-Ser-leu-Dap-3-ClPhe-nal-arg-Arg-arg-Arg-Dap] (YHQ[dP]S[dL][Dap][Phe(3-Cl)][d2Nal][dR]R[dR]R[Dap]-NH2; linker N-7-14 via Trimesoyl), the dissociation constant (Kd) in experiment [1] is 3.4 ± 0.4 µM.

As to `CCCC[C@@H]1NC(=O)[C@H](CC(=O)O)NC(=O)[C@@H](Cc2ccccc2)NC(=O)[C@H](Cc2ccc(O)cc2)NC(=O)c2cc3cc(c2)C(=O)NC[C@H](NC(=O)[C@@H](CC(C)C)NC(=O)[C@@H](CC(N)=O)NC1=O)C(=O)N[C@@H](Cc1ccc(Cl)cc1)C(=O)N[C@H](Cc1ccc2ccccc2c1)C(=O)N[C@H](CCCNC(=N)N)C(=O)N[C@@H](CCCNC(=N)N)C(=O)N[C@H](CCCNC(=N)N)C(=O)N[C@@H](CCCNC(=N)N)C(=O)N[C@H](C(N)=O)CNC3=O` [Peptide B7-133-3, TMA-Tyr-phe-Asp-Nle-asn-leu-Dap-4-ClPhe-nal-arg-Arg-arg-Arg-Dap] (Y[dF]D[Nle][dN][dL][Dap][Phe(4-Cl)][d2Nal][dR]R[dR]R[Dap]-NH2; linker N-7-14 via Trimesoyl), the “inhibition of E. chaffeensis infection” value in experiment [2] (10 μM, 2 days, vs DMSO control) is reported as “significantly inhibited”. Also, in experiment [2] (1, 5, and 10 μM), the “dose dependence of inhibition of E. chaffeensis infection” value is “dose-dependent manner”. Further, in experiment [2] (THP-1 cells), the “inhibition of E. chaffeensis infection compared with peptide B7 (or B7-16)” value was “significantly more potent inhibition”. Also, the “E. chaffeensis infection (numbers and sizes of morulae)” value in experiment [3] is recorded as “significantly inhibited”.
